{"source": "patent US11484510B2", "about": "“Method to treat vitiligo” (APIRX PHAR[…], LLC, priority 2017, dated 2022)", "origin": "cited, not measured here", "key": {"CB1 receptor": {"target": "CB1 receptor (Homo sapiens, UniProt P21554)", "sequence (P21554 whole entry)": "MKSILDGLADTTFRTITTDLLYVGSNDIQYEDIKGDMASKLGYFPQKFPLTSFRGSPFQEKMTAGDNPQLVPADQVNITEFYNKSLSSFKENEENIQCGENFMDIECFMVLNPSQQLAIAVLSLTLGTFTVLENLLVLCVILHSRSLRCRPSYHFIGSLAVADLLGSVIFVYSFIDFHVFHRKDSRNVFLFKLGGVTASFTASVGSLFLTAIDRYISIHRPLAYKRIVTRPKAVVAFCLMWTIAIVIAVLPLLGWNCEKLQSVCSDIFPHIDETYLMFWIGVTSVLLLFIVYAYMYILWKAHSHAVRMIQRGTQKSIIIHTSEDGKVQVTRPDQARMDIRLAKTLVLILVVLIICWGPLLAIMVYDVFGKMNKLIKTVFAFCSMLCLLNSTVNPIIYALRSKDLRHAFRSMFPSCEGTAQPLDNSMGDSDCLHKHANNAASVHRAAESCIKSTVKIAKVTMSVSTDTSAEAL"}}}
{"smiles": "CCCCCc1cc(O)c(C/C=C(\\C)CCC=C(C)C)c(O)c1", "note": "[CBG, 2-[(2E)-3,7-dimethylocta-2,6-dienyl]-5-pentyl-benzene-1,3-diol]", "values": [{"measurement": "Affinity, α2-adrenergic receptor agonist", "setting": "α2-adrenergic receptor", "value": "high affinity"}, {"measurement": "Affinity, 5-HT1A receptor antagonist", "setting": "5-HT1A receptor", "value": "moderate affinity"}, {"measurement": "Affinity, CB1 receptor antagonist", "setting": "CB1 receptor", "value": "low affinity"}]}
